Measured values reported in the NIST ThermoML archive (doi:10.1016/j.jct.2011.05.018).
± gives the expanded uncertainty stated by the source.

Experiment: xn = mol fraction of the nth substance listed
Conditions: 101 kPa, Liquid; for viscosity: Capillary tube (Ostwald / Ubbelohde) method; for speed of sound: Pulse-echo method; for mass density: Pycnometric method

COc1ccc(C=O)cc1 [4-methoxybenzaldehyde] + Cc1ccc(O)cc1
Conditions | mass density [kg/m3] | speed of sound [m/s] | viscosity [mPa·s]
303.15 K, x1 = 0.0882 | 1032.1 ± 10 | 1492 ± 2.3 | 9.142 ± 0.098
303.15 K, x1 = 0.1788 | 1038.5 ± 10 | 1511.2 ± 2.2 | 8.618 ± 0.089
303.15 K, x1 = 0.2717 | 1044.6 ± 10 | 1532.1 ± 2.1 | 8.086 ± 0.08
303.15 K, x1 = 0.3673 | 1053 ± 11 | 1553.5 ± 2 | 7.524 ± 0.072
303.15 K, x1 = 0.4654 | 1061.2 ± 11 | 1575.9 ± 2 | 7.064 ± 0.065
303.15 K, x1 = 0.5663 | 1068.4 ± 11 | 1599.1 ± 1.9 | 6.543 ± 0.058
303.15 K, x1 = 0.6701 | 1076.7 ± 11 | 1622.7 ± 1.8 | 5.753 ± 0.049
303.15 K, x1 = 0.7769 | 1089.3 ± 11 | 1646.6 ± 1.7 | 5.04 ± 0.041
303.15 K, x1 = 0.8868 | 1105.6 ± 11 | 1671.3 ± 1.7 | 4.265 ± 0.033
303.15 K, x1 = 1 | 1125.2 ± 11 | 1694.3 ± 1.6 | 3.251 ± 0.024
308.15 K, x1 = 0.0882 | 1027.7 ± 10 | 1477 ± 2.3 | 7.824 ± 0.084
308.15 K, x1 = 0.1788 | 1033 ± 10 | 1496.4 ± 2.2 | 7.419 ± 0.077
308.15 K, x1 = 0.2717 | 1038.6 ± 10 | 1516.2 ± 2.1 | 7.002 ± 0.07
308.15 K, x1 = 0.3673 | 1045.9 ± 10 | 1536.6 ± 2 | 6.568 ± 0.063
308.15 K, x1 = 0.4654 | 1053 ± 11 | 1558 ± 2 | 6.218 ± 0.058
308.15 K, x1 = 0.5663 | 1060.5 ± 11 | 1580.1 ± 1.9 | 5.826 ± 0.052
308.15 K, x1 = 0.6701 | 1066.8 ± 11 | 1602.5 ± 1.8 | 5.158 ± 0.044
308.15 K, x1 = 0.7769 | 1077.5 ± 11 | 1625.2 ± 1.7 | 4.604 ± 0.038
308.15 K, x1 = 0.8868 | 1093 ± 11 | 1648.6 ± 1.7 | 3.965 ± 0.031
308.15 K, x1 = 1 | 1111.6 ± 11 | 1670.7 ± 1.6 | 3.131 ± 0.023
313.15 K, x1 = 0.0882 | 1024.2 ± 10 | 1462.2 ± 2.3 | 6.529 ± 0.071
313.15 K, x1 = 0.1788 | 1029.7 ± 10 | 1479.1 ± 2.2 | 6.242 ± 0.065
313.15 K, x1 = 0.2717 | 1035.9 ± 10 | 1496.4 ± 2.1 | 5.913 ± 0.06
313.15 K, x1 = 0.3673 | 1044 ± 10 | 1514.2 ± 2 | 5.582 ± 0.054
313.15 K, x1 = 0.4654 | 1050.3 ± 10 | 1533 ± 2 | 5.339 ± 0.05
313.15 K, x1 = 0.5663 | 1057.6 ± 11 | 1552.4 ± 1.9 | 5.07 ± 0.046
313.15 K, x1 = 0.6701 | 1065.6 ± 11 | 1572 ± 1.8 | 4.541 ± 0.039
313.15 K, x1 = 0.7769 | 1076.5 ± 11 | 1591.7 ± 1.7 | 4.099 ± 0.034
313.15 K, x1 = 0.8868 | 1091.7 ± 11 | 1612 ± 1.7 | 3.609 ± 0.028
313.15 K, x1 = 1 | 1109.5 ± 11 | 1631.3 ± 1.6 | 2.961 ± 0.022
318.15 K, x1 = 0.0882 | 1020 ± 10 | 1445.1 ± 2.3 | 5.316 ± 0.058
318.15 K, x1 = 0.1788 | 1027.2 ± 10 | 1456.5 ± 2.2 | 5.115 ± 0.054
318.15 K, x1 = 0.2717 | 1033.9 ± 10 | 1467.9 ± 2.1 | 4.87 ± 0.05
318.15 K, x1 = 0.3673 | 1042.1 ± 10 | 1479.6 ± 2 | 4.616 ± 0.045
318.15 K, x1 = 0.4654 | 1048.9 ± 10 | 1492.3 ± 2 | 4.431 ± 0.042
318.15 K, x1 = 0.5663 | 1055.4 ± 11 | 1505.4 ± 1.9 | 4.259 ± 0.039
318.15 K, x1 = 0.6701 | 1063 ± 11 | 1518.5 ± 1.8 | 3.861 ± 0.034
318.15 K, x1 = 0.7769 | 1073.7 ± 11 | 1531.2 ± 1.7 | 3.523 ± 0.029
318.15 K, x1 = 0.8868 | 1088.9 ± 11 | 1544.7 ± 1.7 | 3.163 ± 0.025
318.15 K, x1 = 1 | 1104.7 ± 11 | 1557 ± 1.6 | 2.682 ± 0.02
